Test system: A2780
Assay: Antiproliferative activity against human A2780 cells
Type: cell-based

CC(C)=CCc1c(O)ccc2oc3c(O)c4c(c(O)c3c(=O)c12)C=CC(C)(C)O4 [TERMICALCICOLANONE A]
IC50: 40.6 µM

CC(C)=CCc1c(O)c(O)cc2oc3c4c(cc(O)c3c(=O)c12)OC(C)(C)C=C4
IC50: 8.1 µM

— ChEMBL document CHEMBL1142112, “Antiproliferative xanthones of Terminalia calcicola from the Madagascar rain forest” (J Nat Prod, 2007)
